Measured values published in patent publication US20230256033A1, “PHYSIOLOGICALLY ACCEPTABLE COMPOSITIONS CONTAINING MICROORGANISMS OR MICROBIAL PRODUCTS” (FLAGSHIP PIONEERING INNOVATIONS VI, LLC, priority 2020, published 2023).

System: LPS induced NFkB activity in THP1-Blue™ cells
Test: Suppression of LPS induced NFkB in human monocyte THP-1 reporter cells (THP1-BLUE NFkB, SEAP)
Type: cell-based
Conditions: IKK 16 at 2 μM; LPS 100 ng/mL 18 hours

## O=C(c1ccc(Nc2nccc(-c3cc4ccccc4s3)n2)cc1)N1CCC(N2CCCC2)CC1 [IKK 16]
  Suppression of LPS induced NFkB activity in THP1-Blue ™ cells (control for suppression): −80%
